According to publication PMC3845832 (Clinical cancer research : an official journal of the …, 2013):
Where two headings read alike, the source gives them in different places.

Experiments:
[1] = system: UGT1A9; conditions: in vitro; cited from earlier work
[2] = clinical; conditions: human, in vivo
[3] = system: CLL patients; experiment: Tumor lysis syndrome; assay type: in vivo, human
[4] = system: CLL patients; conditions: human, in vivo
[5] = system: CLL patients; conditions: cited from earlier work
[6] = system: refractory CLL patients; conditions: pharmacokinetically guided dosing, cited from earlier work
[7] = system: UGT1A1 or UGT1A4; conditions: in vitro; cited from earlier work
[8] = system: CLL patients; experiment: Population PK-PD logistic regression model of TLS probability in Cycle 1; conditions: linear function, day 1 or 8; p<0.01 for significance
[9] = Dinaciclib clearance pathways; conditions: unpublished data

## CN1CC[C@H](c2c(O[C@@H]3O[C@H](C(=O)O)[C@@H](O)[C@H](O)[C@H]3O)cc(O)c3c(=O)cc(-c4ccccc4Cl)oc23)[C@H](O)C1 [Flavo-7-G, 7-O-β-glucopyranuronosyl-flavopiridol]
[1]
  Share of glucuronidation product: 98.5%

## CN1CC[C@H](c2c(O)cc(O)c3c(=O)cc(-c4ccccc4Cl)oc23)[C@H](O)C1 [flavopiridol]
[2]; both
  Lower CL in females compared to males: 12.3%
[2]
  Vd: 75.8 L
[2]; iv
  clearance: 568 mL/min
[3]; 111 patients of phase I and II studies
  Patients who had TLS in the first cycle: 43%
[3]; Day 1, Cycle 1
  Number of patients having TLS: 25
[4]
  Exposure (Cmax or AUC) as predictor of TLS in the model: did not improve the model
[5]; two trials, pharmacokinetically guided dosing regimen
  Patients in whom TLS (dose-limiting toxicity) was observed: 53 out of 116
[6]; phase I trial
  Patients achieving objective responses: 40%
[6]; phase II trial
  Patients achieving objective responses: 53%

## CN1CCC(c2c(O)cc(O[C@@H]3O[C@H](C(=O)O)[C@@H](O)[C@H](O)[C@H]3O)c3c(=O)cc(-c4ccccc4Cl)oc23)C(O)C1 (stereo partly drawn) [Flavo-5-G, 5-O-β-glucopyranuronosyl-flavopiridol]
[7]
  Share of glucuronidation product: minor glucuronidation product

## flavopiridol glucuronide [flavo-G]
[2]
  AUC, median value: 13.6 µg·h/mL
  AUC, range: 3.21 to 141 µg·h/mL
[8]
  Exposure (Cmax or AUC) as predictor of TLS in the model: significant decrease in OFV

## CCc1cnn2c(NCc3ccc[n+]([O-])c3)cc(N3CCCC[C@H]3CCO)nc12 [dinaciclib]
[9]
  Role of glucuronidation in clearance: clearly important
[5]
  TLS in treated CLL patients: observed
